Assay results taken from patent US6620828B2, “Thiazole compounds and pharmaceutical compositions for inhibiting protein kinases and methods for their use” (Agouron Pharmaceuticals, Inc., priority 1999, dated 2003).

How the values were obtained:
Format in all cases: biochemical
[1] = target: T1, phosphorylated VEGF-R2Δ50 (FLVK-P) (Homo sapiens, UniProt P35968, DEL940-989/E990V); assay: VEGF-R2 coupled spectrophotometric (FLVK-P) assay; details: read-out: VEGF % inhibition at 20 μM, 20 μM; combinatorial library compounds
T1 construct: VEGF-R2Δ50 contains residues 806-939 and 990-1171; made in house; host or cells: baculovirus/insect cells
T1 sequence (P35968 with tags, fused parts or gaps DEL940-989/E990V limits assumed): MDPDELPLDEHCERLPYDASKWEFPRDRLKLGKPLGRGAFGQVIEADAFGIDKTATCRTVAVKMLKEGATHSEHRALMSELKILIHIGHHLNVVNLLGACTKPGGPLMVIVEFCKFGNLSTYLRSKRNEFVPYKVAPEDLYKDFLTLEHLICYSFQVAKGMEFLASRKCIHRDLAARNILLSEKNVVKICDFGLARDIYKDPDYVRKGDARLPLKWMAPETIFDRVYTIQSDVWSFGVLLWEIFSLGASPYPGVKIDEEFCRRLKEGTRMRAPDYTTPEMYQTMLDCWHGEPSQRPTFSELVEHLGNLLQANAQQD
Procedure, shortened: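 Baculovirus-expressed human VEGF-R2Δ50 (residues 806-939/990-1171, E990V) was autophosphorylated with 3 mM ATP, 40 mM MgCl2 for 2 h at 4° C. ADP formation was coupled via PK/LDH to NADH oxidation, read at 340 nm, with 5.1 mM poly(E4Y1), 1 mM ATP, 25 mM MgCl2, Hepes pH 7.5. Ki came from activity across compound concentrations.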

[2] = target: T2, FL-CHK1 (Homo sapiens, UniProt O14757); assay: CHK1 assay; details: 20 μM; combinatorial library compounds
T2 construct: C-terminally His-tagged full-length human CHK1 (FL-CHK1); 6xHis (C); made in house; host or cells: baculovirus/insect cells
T2 sequence (O14757 1-476): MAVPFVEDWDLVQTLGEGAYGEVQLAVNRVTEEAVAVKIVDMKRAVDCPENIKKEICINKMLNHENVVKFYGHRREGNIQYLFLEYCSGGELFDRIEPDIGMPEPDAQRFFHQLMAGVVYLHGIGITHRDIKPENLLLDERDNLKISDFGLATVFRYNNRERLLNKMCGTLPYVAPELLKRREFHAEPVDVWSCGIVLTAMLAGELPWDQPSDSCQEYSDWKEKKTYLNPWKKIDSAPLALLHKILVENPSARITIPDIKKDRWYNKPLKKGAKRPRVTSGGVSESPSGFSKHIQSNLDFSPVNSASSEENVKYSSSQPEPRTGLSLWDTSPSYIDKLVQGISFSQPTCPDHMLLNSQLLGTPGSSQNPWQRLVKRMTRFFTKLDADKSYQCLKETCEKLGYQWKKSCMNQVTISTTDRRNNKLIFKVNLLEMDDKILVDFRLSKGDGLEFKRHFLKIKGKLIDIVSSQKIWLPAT
Procedure, shortened: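 Full-length human CHK1 with C-terminal 6×His tag, made in baculovirus/insect cells, 10 nM, phosphorylating 0.125 mM Syntide-2 with 0.15 mM ATP in 50 mM Tris pH 7.5, 25 mM MgCl2, 400 mM NaCl. PK/LDH-coupled NADH oxidation read at 340 nm. Ki from initial rates over varied compound concentrations.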

[3] = target: CDK2/Cyclin A complex (Homo sapiens, UniProt P24941); assay: CDK2/Cyclin A assay; details: 1.0 μM; combinatorial library compounds
Procedure, shortened: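 Radiometric assay: 150 nM CDK2/cyclin A (insect-cell CDK2, truncated cyclin A) phosphorylates His-tagged Rb fragment (residues 386-928) with 25 μM ATP plus [32P]ATP, pH 7.4 HEPES, 2% DMSO, 30 °C for 20 min. Filter-captured product counted by phosphorimager; apparent Ki from competitive or tight-binding inhibition fits.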

[4] = target: T3, CDK4/Cyclin D3 complex (Homo sapiens, UniProt P11802); assay: CDK4/Cyclin D assay; details: 1.0 μM; combinatorial library compounds
T3 construct: made in house; host or cells: insect cells co-infected with baculovirus vectors
T3 sequence (P11802 whole entry): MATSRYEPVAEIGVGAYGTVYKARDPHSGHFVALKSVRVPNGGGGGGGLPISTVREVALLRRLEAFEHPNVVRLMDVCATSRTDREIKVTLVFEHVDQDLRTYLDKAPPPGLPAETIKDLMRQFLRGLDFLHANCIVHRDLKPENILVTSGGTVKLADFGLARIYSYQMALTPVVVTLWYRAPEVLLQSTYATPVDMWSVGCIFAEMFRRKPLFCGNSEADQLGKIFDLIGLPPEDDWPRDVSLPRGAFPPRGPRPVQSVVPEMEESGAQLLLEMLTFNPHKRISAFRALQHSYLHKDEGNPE
T3 sequence (P30281 whole entry partner): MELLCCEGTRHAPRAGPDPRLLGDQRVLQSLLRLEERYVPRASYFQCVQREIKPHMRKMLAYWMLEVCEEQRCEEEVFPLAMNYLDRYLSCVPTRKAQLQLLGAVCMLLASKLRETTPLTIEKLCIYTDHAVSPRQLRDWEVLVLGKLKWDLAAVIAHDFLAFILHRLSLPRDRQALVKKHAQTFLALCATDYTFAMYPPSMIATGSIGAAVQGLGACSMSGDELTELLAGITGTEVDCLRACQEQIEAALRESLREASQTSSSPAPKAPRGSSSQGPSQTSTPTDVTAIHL
Procedure, shortened: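 Insect-cell-expressed CDK4/cyclin D3 (50 nM) phosphorylating His-tagged Rb fragment (residues 386-928) with 25 μM [^32P]ATP in HEPES pH 7.4, MgCl2, 2% DMSO; 20 min at 30 °C, EDTA stop. Filter-captured 32P by phosphorimager; apparent Ki from competitive or tight-binding inhibition fits.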

SMILES	inhibition at 20 µM [1]	inhibition at 20 µM [2]	inhibition at 1 µM [3]	inhibition at 1 µM [4]
CN(C)c1ccc(Nc2nc(N)c(-c3nc(-c4ccc(O)c(O)c4)cs3)s2)cc1	34%	46.5%	16.8%	53%
CN(C)c1ccc(Nc2nc(N)c(-c3nc(-c4ccc5ccccc5c4)cs3)s2)cc1	5%	19.6%	26.9%	45.5%
CN(C)c1ccc(Nc2nc(N)c(-c3nc(-c4ccc(-c5ccccc5)cc4)cs3)s2)cc1	-12%	5%	14.5%	-12.6%
CN(C)c1ccc(Nc2nc(N)c(-c3nc(-c4ccc(C#N)cc4)cs3)s2)cc1	11%	8.2%	14.3%	36.4%
CN(C)c1ccc(Nc2nc(N)c(-c3nc(-c4ccc(Cl)cc4Cl)cs3)s2)cc1	19%	26.9%	17.3%	76.1%
Cc1onc(-c2ccccc2)c1-c1csc(-c2sc(Nc3ccc(N(C)C)cc3)nc2N)n1	25%	8.1%	8.3%	59.8%
CN(C)c1ccc(Nc2nc(N)c(-c3nc(-c4ccc5c(c4)OCCO5)cs3)s2)cc1	16%	40.8%	5%	56.5%
CN(C)c1ccc(Nc2nc(N)c(-c3nc(-c4ccc(F)cc4)cs3)s2)cc1	41%	41.7%	34.8%	56%
CN(C)c1ccc(Nc2nc(N)c(-c3nc(-c4ccc(OC(=O)c5ccccc5)cc4)cs3)s2)cc1	-4%	5.5%	8.7%	49.4%
CN(C)c1ccc(Nc2nc(N)c(-c3nc(-c4ccc[nH]4)cs3)s2)cc1	28%	32.5%	31.7%	63.6%
CN(C)c1ccc(Nc2nc(N)c(-c3nc(-c4ccc(F)c(F)c4)cs3)s2)cc1	8%	4.2%	3.3%	8.1%
CN(C)c1ccc(Nc2nc(N)c(-c3nc(-c4cccc([N+](=O)[O-])c4)cs3)s2)cc1	6%	13.8%	17.1%	27%
CN(C)c1ccc(Nc2nc(N)c(-c3nc(-c4ccc(Cl)c(Cl)c4)cs3)s2)cc1	0%	5.1%	9.2%	-6.5%
CN(C)c1ccc(Nc2nc(N)c(-c3nc(-c4ccc(O)cc4)cs3)s2)cc1	46%	47.1%	26.6%	66.8%
Cc1cc(-c2csc(-c3sc(Nc4ccc(N(C)C)cc4)nc3N)n2)cc(C)c1O	24%	27.2%	29.8%	52.4%
CN(C)c1ccc(Nc2nc(N)c(-c3nc(-c4c(Cl)c(Cl)nc(Cl)c4Cl)cs3)s2)cc1	35%	41.4%	33.3%	64.4%
Cc1ccc(-c2csc(-c3sc(Nc4ccc(N(C)C)cc4)nc3N)n2)c(C)c1	21%	-0.9%	16.1%	23.3%
CN(C)c1ccc(Nc2nc(N)c(-c3nc(-c4ccc(CC(=O)O)s4)cs3)s2)cc1	28%	38.1%	6.3%	69.4%
CN(C)c1ccc(Nc2nc(N)c(-c3nc(-c4cccc(OC(=O)c5ccccc5)c4)cs3)s2)cc1	16%	23.3%	0.6%	57.5%
COc1cc(OC)c(-c2csc(-c3sc(Nc4ccc(N(C)C)cc4)nc3N)n2)c(O)c1Cl	36%	41.1%	24.1%	69.3%
